In US20240300905A1, “Quinazoline Compounds and Uses” (Prosetta Biosciences, Inc., priority 2023, published 2024):

Key:
Format in all cases: cell-based
Hennes-20 cells = experiment: Hennes-20 oncology screen (low vs high plating density, alamar Blue); conditions: 72 h, Hennes-20 cells, 72 hours compound incubation, alamar Blue; read-out: EC50
Method: All compounds mentioned as active were tested in Hennes. Select hits from the Hennes screen were sent for additional anti-cancer testing.
To screen compounds for oncology activity Hennes-20 cells were plated at low (500 cells/well) versus high (15,000 cells/well) densities and treated with DMSO (vehicle) or dose-titration of compounds. The rationale for this screen is that an intrinsically toxic compound should kill cells regardless of density, including in Hennes-20 cells. However, a compound that selectively triggers the arrest of proliferation will inhibit cell growth when plated at a low density will appear cytotoxic due to inhibition of cell growth when plated at a low density but will appear non-toxic to cells plated at a high density where the cells are approaching confluence and the readout detected by a cell viability assay is already close to the maximum.
To conduct the Hennes-20 screen, two 96 well plates were seeded with Hennes 20 cells in parallel where one was plated at a density of 500 cells/well and the other was plated at a density of 15,000 cells/well. 90 uL of minimum essential media was added to each well and plates were placed in a 37 degrees Celsius incubator for 24 hours. The next day, 10 ul of media containing dilutions of compound in DMSO were added to each plate. Six wells on each plate received 10 ul of media containing only DMSO. Each well was gently mixed 5 times with a 100 ul pipette. Plates were incubated at 37 degrees Celsius for 72 hours then 10 uL of alamar Blue was added to each well. Wells were mixed 5 times then incubated at 37 degrees Celsius for […]. Plates were then read at 530/590.
The rationale for the screen is as follows: Hennes-20 cells lack endogenous apoptosis. Cells plated at low density will proliferate and approach confluence in 72 hrs. A drug that arrests proliferation may have its proliferation blocking effect masked by the triggering of endogenous apoptosis. However, in the Hennes line, lacking endogenous apoptosis, such an arrest is manifest as a dose-dependent maintenance at low cell density. Since the high-density cells are plated close to confluence, the difference between Alamar Blue cell survival readings after 72 hrs reflects the ability of the drug to block proliferation in the low density-plated cells. In the high density-plated cells any diminution of Alamar Blue readout vs vehicle control is due to intrinsic toxicity, not proliferation arrest, since cells were already at confluence. Thus, a compound that appears toxic (low Alamar Blue readings after 72 hrs) on the low-density plate, but which appears non-toxic (high Alamar Blue readings after 72 hrs) on the high-density plate, must be arresting proliferation, since intrinsic compound toxicity should be observed at both low and high cell densities, not selectively on the low-density plate.

plasmodium = experiment: Malaria screen (SYBR green fluorescence, plasmodium parasitemia culture); conditions: 0.5% plasmodium parasitemia culture, 48 hours
Method: Compound was added to a 0.5% plasmodium parasitemia culture for 48 hours, then treated with SYBR green (a dye with marked fluorescence enhancement upon contact with plasmodium DNA) and the fluorescence was measured in drug treated versus untreated cells to determine inhibitory effects (Smilkstein, et al., “Simple and inexpensive fluorescence-based technique for high-throughput antimalarial drug screening,” Antimicrob Agents Chemother, 2004 May; 48(5):1803-6. doi: 10.1128/AAC.48.5.1803-1806.2004. PMID: 15105138: PMCID: PMC400546).

NL4-3 Rluc virus = experiment: HIV screen (NL4-3 Rluc virus in MT-2 cells, luciferase readout); conditions: Human immunodeficiency virus 1, NL43, MT2, 96 h
Method: MT-2 cells were preseeded in 96-well plates in 100 uL of complete RPMI. Multiple concentrations of PAV-951 were serially diluted in DMSO then into an infection media prepared by diluting NL4-3 Rluc virus stock to 400 IU/100 uL with complete RPMI, which was transferred onto the MT-2 cells with a final MOI of 0.02 and final DMSO concentration of 1% in infected places. One well received DMSO only, instead of PAV-951, and one well received medium only for normalization and background collection. Cells were incubated at 37 degrees Celsius for 96 hours. 100 ul of medium was removed and discarded and 10 uL of 15 uM EnduRen luciferase substrate was added to each well, followed by incubation for 1.5 hours at 37 degrees Celsius. Plates were read on a luminescence plate reader. Bioluminescence intensity was read on a Synergy H1 BioTek plate reader. Averages and standard deviation for viral titer observed under different treatment conditions were calculated in Microsoft Excel and graphed as the percent inhibition in PAV-951 treated cells compared to untreated cells.

Compound | EC50 (plasmodium) [µM] | EC50 (Hennes-20 cells) [nM] | EC50 (NL4-3 Rluc virus) [nM]
CC(C)CCNc1ncnc2cc(N3CCN(c4ccc5c(NCCC(C)C)ncnc5c4)CC3)ccc12 [Compound 6] | 0.024 | < 500 | 340
CC(C)CCNc1ncnc2cc(N3CCN(c4ccc5c(NCCC6CCNCC6)ncnc5c4)CC3)ccc12 [Compound 36] | 0.76 | < 12500 | 
CC(C)CCNc1ncnc2cc(N3CCN(c4ccc5c(NCCc6ccccc6)ncnc5c4)CC3)ccc12 [Compound 11] | 0.032 | < 100 | 
Cn1cccc1CCNc1ncnc2cc(N3CCN(c4ccc5c(NCCc6cccn6C)ncnc5c4)CC3)ccc12 [Compound 5] | 0.031 | < 2500 | 190
Clc1ccc2c(N3CCN(c4ncnc5cc(Cl)ccc45)CC3)ncnc2c1 [Compound 46] | > 10 |  | 510
CC(C)CCNc1ncnc2cc(N3CCNCC3)ccc12 [Compound 35] | 0.77 |  | 

Further lines, with some results ahead:

EC50 (plasmodium) [µM] | Compound | EC50 (Hennes-20 cells) [nM] | EC50 (NL4-3 Rluc virus) [nM]
0.03 | c1cc(CCNc2ncnc3cc(N4CCN(c5ccc6c(NCCc7ccncc7)ncnc6c5)CC4)ccc23)ccn1 [Compound 33] | < 12500 | 
1.4 | CN1CCC(Nc2ncnc3cc(N4CCN(c5ccc6c(NC7CCN(C)CC7)ncnc6c5)CC4)ccc23)CC1 [Compound 38] |  | 
0.06 | c1cncc(CCNc2ncnc3cc(N4CCN(c5ccc6c(NCCc7cccnc7)ncnc6c5)CC4)ccc23)c1 [Compound 41] | < 12500 | 
> 10 | CC(C)CC(=O)Nc1ncnc2cc(N3CCN(c4ccc5c(NC(=O)CC(C)C)ncnc5c4)CC3)ccc12 [Compound 43] |  | 
0.091 | c1ccc(CCNc2ncnc3cc(N4CCN(c5ccc6c(NCCc7ccccn7)ncnc6c5)CC4)ccc23)nc1 [Compound 40] | < 12500 | 
3 | CC(C)CCn1ccc2cc(N3CCN(c4ccc5c(ccn5CCC(C)C)c4)CC3)ccc21 [Compound 39] |  | 
0.068 | CC(C)CCN(C)c1ncnc2cc(N3CCN(c4ccc5c(N(C)CCC(C)C)ncnc5c4)CC3)ccc12 [Compound 26] |  | 
0.2 | CC(C)CCNc1ncnc2cc(N3CCN(c4ccc5ccn(CCC(C)C)c5c4)CC3)ccc12 [Compound 34] |  | 
0.028 | COc1ccc(CNc2ncnc3cc(N4CCN(c5ccc6c(NCc7ccc(OC)cc7)ncnc6c5)CC4)ccc23)cc1 [Compound 20] |  | 
0.036 | c1ccc(CCNc2ncnc3cc(N4CCN(c5ccc6c(NCCc7ccccc7)ncnc6c5)CC4)ccc23)cc1 [Compound 1] | < 500 | 
